Consider two compounds from patent US20130028955A1, “SUSTAINED RELEASE ORAL MATRIX AND METHODS OF MAKING THEREOF” (priority 2011, published 2013).

A short description of this series: Dissolution, USP basket apparatus 1, simulated intestinal fluid pH 6.8. The series is classed as physicochemical. To be noted: for drug release 0.5 h / drug release 1 h / drug release 2 h / drug release 4 h / drug release 8 h / drug release 12 h / drug release 24 h: Table 7, Example VII combination tablet; for drug release 0 h: Table 7, Example VII tablet: 20% silicone PSA, 8.7% tramadol HCl, 71.7% acetaminophen. Here is the method:
The release rate of these formulations were carried out using USP dissolution basket apparatus 1 (Vankel, Inc) using about 100 rpm stirring speed at about 37 C in about 900 ml of the dissolution medium. The dissolution medium used was simulated intestinal fluid with a pH of about 6.8. At predetermined time intervals, 1 ml of sample was withdrawn and was analyzed to determine acetaminophen concentration. Concentration of acetaminophen in the dissolution medium was determined using a HPLC method. A C8 column was used using mobile phase of 65% methanol and 35% water. Flow rate was 1 ml/min and the UV detection wavelength was 254 nm. The results are reported as average of six tablets. […] Total weight of each tablet was 500 mg. The diameters of the tablets were 13 mm.

Structures are written as SMILES. Structures can show the parent of a compound that is named as a salt.

For `CC(=O)Nc1ccc(O)cc1` [APAP, acetaminophen], the “drug release 0.5 h” value is on record as 13.5, the “drug release 1 h” value is recorded as 22.6, the “drug release 2 h” value was 31.9 and the “drug release 4 h” value was 44.8. In addition, the “drug release 8 h” value is 61.1, the “drug release 12 h” value is recorded as 74.3, the “drug release 24 h” value is listed as 86.0 and the “drug release 0 h” value is recorded as 0.0.

As to `COc1cccc(C2(O)CCCCC2CN(C)C)c1` (stereo not shown) [Tramadol HCl, Tramadol hydrochloride], the “drug release 0.5 h” value is 15.8, the “drug release 1 h” value is 23.2, the “drug release 2 h” value is 32.1 and the “drug release 4 h” value was 43.4. In addition, the “drug release 8 h” value was 56.8, the “drug release 12 h” value is recorded as 68.3, the “drug release 24 h” value is 89.4 and the “drug release 0 h” value is on record as 0.0.
